Numbered stars: 1 amine (or outer) side, 2 acyl side, 3 side chain; on linkers, the order of the positions; unused ones are H or OH. Bridge positions count the residues as written; N and C are the ends. Square brackets hold non-standard residues; d marks the D form. Ends that are not written are not given here. Peptide text beside a SMILES is read from it. ξ: configuration not given here. ξαMeNle(6-ylidene) = CC(CCCC=[*:3])(N[*:1])C(=O)[*:2]; X1 = CC(CCCCCCC=[*:3])(N[*:1])C(=O)[*:2]; Suc = O=C(CCC(=O)[*:2])[*:1]

Series [1] concerns the target MM.1S, B Lymphoblast (multiple myeloma). Briefly: Viability assay (MTT, Alamar Blue, hexosaminidase), 72 h. It counts as cell-based. How it is done:
MM.1S, B Lymphoblast (multiple myeloma), ATCC: CRL-2974
(§1) Cell lines A549, MCF-7 and RAMOS were cultured in incubator under CO2 (6%) at 37° C. in DMEM high glucose (Dulbecco's Modified Eagle Solution, Gibco-BRL 31966-21) medium with 10% fetal bovine serum inactivated (FBS) (Gibco-BRL 10106-169). Cell lines HL-60 and MM.1S were cultured in incubator at 37° C. in RPMI-1640 (Sigma R8758) medium with 10% of fetal bovine serum inactivated (FBS) and 2 mM glutamine (Sigma G7513). Cell lines BJ were cultured in incubator under CO2 (6%) at 37° C. in Eagle's Minimum Essential Medium (Sigma, M-2279) with 10% fetal bovine serum inactivated (FBS) (Gibco-BRL 10106-169).
(§2) During the amplification step and the assays adherent cells were rinsed with DPBS (Dulbecco's Phosphate Buffered Saline, Sigma D1283) three times and afterward treated for 5 minutes with trypsin ([…]) (Gibco-BRL, 15400054) in solution of DPBS at 37° C., and, once detached, transferred in the culturing medium. No-adherent cells were centrifuged and transferred in the culturing medium. Cells were counted in a Neubauer chamber after labelling with Tripan-Blue.
(§3) A549, MCF-7 and JB cells were seeded at a density of 5000 cells/well and HL-60, MM.1S and Ramos at 10000 cells/well in 100 μl of medium in 96 well plates. After 24 h, the compounds to be tested were added to calculate the dose/response curve at the starting concentration of 100 μM with serial dilutions (1:1). Controls are the untreated cells. Each experiment was performed in triplicate.
(§4) Cells were incubated during 72 h in incubator under CO2 atmosphere at 37° C. Cell viability was measured by means of MTT (3-(4,5-dimethylthiazol-2-yl)-2.5-diphenyltetrazolium bromide) assay, Alamar Blue® (Biosource DAL1100) and Hexosaminidase activity test, consecutively, following manufacturer instructions.
(§5) MTT: 1. Stock solution of MTT (475989 Calbiochem) was 5 mg/ml in PBS 1×. As negative control (experiment noise) 3 wells were treated with 20 μl/well of a solution of SDS 10% in H2O. The same control was used for Alamar Blue/Hexosaminidase. 10 μl/well of MTT solution were added and the plate was incubated for 3-4 hr. The medium was discarded and 100 μl of extracting buffer (PBS 1×, 15% SDS, 50% […] N,N-Dimethylformamide, pH 4.7) were added to each well. Plates were incubated for 16 h at room temperature under orbital shaking. Absorbance at 570 nm was finally measured.
(§6) Alamar Blue: 10 μl Alamar Blue solution was added to each well and the plates were incubated for […] in the incubator. Fluorescence ratio at 535/590 (excitation/emission) was measured in Cytofluor (Millipore) fluorimeter. Blank control was determined by lysis of untreated cells with con 2% of Triton X100, right before adding Alamar Blue solution.
(§7) Hexosaminidase activity test: after Alamar Blue lecture, medium was discarded and plates were rinsed once with PBS. 60 μl hexosaminidase substrate (p-nitrophenol-N-acetyl-beta-D-glucosamide 7.5 mM [Sigma N-9376], sodium citrate 0.1 M, pH 5.0, 0.25% Triton X-100) was added to each well and the plates were incubated at 37° C. for 2-5 h, according to the cell type (hexosaminidase activity changes according to the cell type). […] Blank control was the same as described before.
(§8) Data analysis was performed calculating the percentage of cell viability normalized vs. the values of negative control, which was considered equal to 100%. The dose/response curve was fitted through the sigmoidal equation dose-response (variable slope) and the EC50 values were calculated as follow: Y=Bottom+(Top−Bottom)/(1+10^{[(Log EC50−X)*HillSlope]},
On the technique in general: Resazurin is reduced to fluorescent resorufin, in cell work by metabolically active cells.

Series [2] concerns several tumor cell lines. Briefly: Anticancer activity in viability assay, stated in words. It counts as cell-based. Here is the method: as §3, §4, §8
Series [3] addresses MCF-7, epithelial (breast cancer). Description: Viability assay (MTT, Alamar Blue, hexosaminidase), 72 h. It counts as cell-based. Here is the method:
MCF-7, epithelial (breast cancer), ECACC: 86012803
as §1, §2, §3, §4, §5, §6, §7, §8

In series [4] the target is HL-60, promyeloblast (acute myelocytic leukemia, AML). The series is described as above. It counts as cell-based. Here is the method:
HL-60, promyeloblast (acute myelocytic leukemia, AML), ECACC: 98070106
as §1, §2, §3, §4, §5, §6, §7, §8

Series [5] addresses RAMOS, B lymphocyte (Burkitt's Lymphoma). The description is as above. It counts as cell-based. How it is done: RAMOS, B lymphocyte (Burkitt's Lymphoma), ATCC: CRL-1596
as §1, §2, §3, §4, §5, §6, §7, §8

Series [6] can be described thus: Stability test in human plasma, 37 °C, UPLC-MS/MS. It counts as in vitro ADME. Here is the method: Reagents: ACN LC-MS (Scharlab AC03712500); MeOH LC-MS (Scharlab ME03262500); IPA LC-MS (Scharlab AL03262500); HCOOH (Carlo Erba 405792); DPBS (Lonza BE17-512F); human plasma with EDTAK2 as anticoagulant were provided by Centre d'Investigació de Medicaments located at the Hospital de la Santa Creu i Sant Pau, C/. Sant Antoni Maria Claret 167, Pavelló Sant Frederic, 08025 Barcelona. Plasma was extracted from a healthy patient on 1 Feb. 2015. It was kept at −20° C. until the experiment day.
A calibration curve of eight non-zero concentration levels (from P1 to P8) was prepared in a concentration interval from 5 to 100 μM for S09. One blank sample of DPBS was also included. All calibration samples were analysed in duplicate. Calibration standard samples were prepared by addition of 30 μL of each calibration solution (from P1 to P8 and blank) to 270 μL of human plasma. Samples for incubation were prepared adding 15 μL of 1 mM solution of S09 to 135 μL of human plasma (final concentration 100 μM). 15 samples were prepared. Samples were incubated at 37° C. for 0, 0.5, 2, 6 and 24 h (three replicates were prepared for each incubation time).
An aliquot of 125 μL human plasma sample (blank, calibration standards and incubation samples) were processed using Sirocco™ Protein Precipitation plates (Waters). 375 μL of ACN were added to each well of the Sirocco plate. Then the samples were filtered applying vacuum (8-10 mm Hg) for about 5 minutes. The filtrates were evaporated under a steady stream of nitrogen (40° C.) and reconstituted with 150 μL of MeOH:H2O 0.1% HCOOH for analysis. Samples were analyzed by UPLC(ACQUITY Ultra Performance LC-MS/MS(API 3000).
UPLC conditions (X-Bridge C18 column; Pump A: H2O with 0.1% formic acid; Pump B Acetonitrile with 0.1% formic acid) using a linear gradient 5%-95% of B in 8 minutes (R. T.=5.95). The mean (out of 3 experiments) of the normalized percentage integrated area corresponding to the peak of S09 at different time are reported in table 11 below.

The target in series [7] is A549, epithelial (lung cancer). Description: Viability assay (MTT, Alamar Blue, hexosaminidase), 72 h. It counts as cell-based. Here is the method:
A549, epithelial (lung cancer), ATCC:CCL-185
as §1, §2, §3, §4, §5, §6, §7, §8

In the case of `CC(C)C[C@H](NC(=O)[C@H](C)NC(=O)[C@H](C)NC(=O)[C@H](Cc1ccccc1)NC(=O)[C@H](C)NC(=O)[C@H](CCCNC(=N)N)NC(=O)[C@H](CCCCN)NC(=O)[C@H](CC(C)C)NC(=O)[C@H](CCC(=O)O)NC(=O)[C@H](CC(N)=O)NC(=O)[C@H](CCCNC(=N)N)NC(=O)[C@H](CCCNC(=N)N)NC(=O)[C@H](CCC(N)=O)NC(=O)[C@H](CCCNC(=N)N)NC(=O)CCC(=O)O)C(=O)N[C@@H](CCCNC(=N)N)C(=O)N[C@@H](CC(=O)O)C(=O)N[C@@H](CCC(N)=O)C(=O)O` [IDP-L13, RQRRNELKRAFAALRDQ] (Suc-RQRRNELKRAFAALRDQ-OH; N-terminus and C-terminus assumed), the EC50 in series [1], in series [3], in series [4] and in series [5] was > 100 µM throughout. The “anticancer activity (active / inactive)” value in series [2] is “inactive”.

Regarding `CC[C@H](C)[C@H](NC(=O)[C@H](Cc1ccc(O)cc1)NC(=O)[C@H](C)NC(=O)C1(C)CCCC=CCCCCCCC(C)(NC(=O)[C@H](CCCCN)NC(=O)[C@@H]2CCCN2C(=O)[C@H](C)N)C(=O)N[C@@H](C(C)C)C(=O)N[C@@H]([C@@H](C)CC)C(=O)N[C@@H](CC(C)C)C(=O)N[C@@H](CCCCN)C(=O)N[C@@H](CCCCN)C(=O)N[C@@H](C)C(=O)N1)C(=O)N[C@@H](CC(C)C)C(=O)N[C@@H](CO)C(=O)O` (some centres unmarked) [IDP-S09, APKXVILKKAXAYILS-OH] (H-APK[X1]VILKKA[ξαMeNle(6-ylidene)]AYILS-OH; staple 4-11; N-terminus assumed), the “% Remaining of active metabolyte (mean)” value in series [6] (100 μM, incubation time 0 h) stood at 0%; in series [6] (100 μM, incubation time 2 h), 0%; in series [6] (100 μM, incubation time 6 h), 0%; in series [6] (100 μM, incubation time 24 h), 0%. The “% Remaining of starting compound (mean)” value in series [6] (100 μM, incubation time 0 h) stood at 100%. Further, the fraction remaining at 2 h, 100 μM in series [6] (human plasma (EDTA-K2), incubation time 2 h, read-out: % Remaining of starting compound (mean)) was determined as 106 ± 4.9%. Besides, the amount remaining at 6 h, 100 μM in series [6] (human plasma (EDTA-K2), incubation time 6 h, read-out: % Remaining of starting compound (mean)) was 90 ± 16%. In addition, in series [6] (human plasma (EDTA-K2), incubation time 24 h, read-out: % Remaining of starting compound (mean)), the amount remaining at 24 h, 100 μM was determined as 97 ± 10%.

For the compound `CC[C@H](C)[C@H](NC(=O)[C@H](Cc1ccc(O)cc1)NC(=O)[C@H](C)NC(=O)[C@H](CC(C)C)NC(=O)[C@H](C)NC(=O)[C@H](CCCCN)NC(=O)[C@H](CCCCN)NC(=O)[C@H](Cc1ccccc1)NC(=O)[C@@H](NC(=O)[C@@H](NC(=O)[C@@H](NC(=O)[C@H](CCCCN)NC(=O)[C@@H]1CCCN1)[C@@H](C)CC)C(C)C)[C@@H](C)CC)C(=O)O` [IDP-L14α, Pro-Lys-Val-Val-Ile-Leu-Lys-Lys-Ala-Thr-Ala-Tyr-Ile], the EC50 in series [1], in series [3], in series [7], in series [4] and in series [5] was > 100 µM throughout. For the same compound, the “anticancer activity (active / inactive)” value in series [2] is “inactive”.

As to “NELKRSFFALRDQ-OH [IDP-L10, NELKRSFFALRDQ]”, the EC50 in series [1], in series [3], in series [4] and in series [5] was > 100 µM each time. For the same compound, the “anticancer activity (active / inactive)” value in series [2] was “inactive”.

As for `CC(C)C[C@H](NC(=O)[C@H](C)NC(=O)[C@H](C)NC(=O)[C@H](Cc1ccccc1)NC(=O)[C@H](CO)NC(=O)[C@H](CCCNC(=N)N)NC(=O)[C@H](CCCCN)NC(=O)[C@H](CC(C)C)NC(=O)[C@H](CCC(=O)O)NC(=O)[C@H](CC(N)=O)NC(=O)[C@H](CCCNC(=N)N)NC(=O)[C@H](CCCNC(=N)N)NC(=O)[C@H](CCC(N)=O)NC(=O)[C@H](CCCNC(=N)N)NC(=O)CCC(=O)O)C(=O)N[C@@H](CCCNC(=N)N)C(=O)N[C@@H](CC(=O)O)C(=O)N[C@@H](CCC(N)=O)C(=O)O` [IDP-L12] (Suc-RQRRNELKRSFAALRDQ-OH; N-terminus and C-terminus assumed), the EC50 in series [1], in series [3], in series [4] and in series [5] was > 100 µM in each case. Also, the “anticancer activity (active / inactive)” value in series [2] is “inactive”.

The values are drawn from patent publication US11207379B2, “Peptides with anti-cancer activity” (IDP DISCOVERY PHARMA, S.L., priority 2016, dated 2021).
